Test results from publication PMC6151383 (Molecules : A Journal of Synthetic Chemistry and Natural …, 2017).
In brackets after ≈: the same amount, converted by molar mass. Read-outs that look alike come from different tables or passages of the source.

Assays:
[1] = tested on: Aspergillus fumigatus 231; assay: Antifungal microdilution broth MIC, A. fumigatus; type: cell-based
[2] = tested on: Lichtheimia corymbifera 272; assay: Antifungal microdilution broth MIC, L. corymbifera; type: cell-based; details: Lichtheimia corymbifera, 272; 48 h incubation; read-out: MIC LC 48 h
[3] = tested on: Candida albicans ATCC 44859; assay: Antifungal microdilution broth MIC, C. albicans; type: cell-based
[4] = tested on: Staphylococcus epidermidis H 6966/08; assay: Antibacterial microdilution broth MIC, S. epidermidis; type: cell-based; details: Staphylococcus epidermidis
[5] = tested on: Candida krusei E28; assay: Antifungal microdilution broth MIC, C. krusei; type: cell-based; details: Pichia kudriavzevii
[6] = tested on: Enterococcus faecalis J 14365/08; assay: Antibacterial microdilution broth MIC, E. faecalis; type: cell-based; details: Enterococcus faecalis, J14365/08; 48 h incubation; read-out: MIC EF 48 h
[7] = tested on: M. kansasii 6509/96; assay: In vitro antimycobacterial MIC, M. kansasii clinical isolate; type: cell-based; details: Mycobacterium kansasii
[8] = tested on: Klebsiella pneumoniae D 11750/08
[9] = tested on: Escherichia coli CCM 4517; assay: Antibacterial microdilution broth MIC, E. coli; type: cell-based; details: Escherichia coli, CCM4517; 48 h incubation; read-out: MIC EC 48 h
[10] = tested on: Mycobacterium tuberculosis 331/88 (H37Rv); assay: In vitro antimycobacterial MIC, M. tuberculosis; type: cell-based
[11] = tested on: Mycobacterium avium 330/88; assay: In vitro antimycobacterial MIC, M. avium; type: cell-based
[12] = tested on: Trichosporon asahii 1188; assay: Antifungal microdilution broth MIC, T. asahii; type: cell-based
[13] = tested on: ESBL-positive Klebsiella pneumoniae J 14368/08
[14] = tested on: Pseudomonas aeruginosa CCM 1961; assay: Antibacterial microdilution broth MIC, P. aeruginosa; type: cell-based; details: Pseudomonas aeruginosa, CCM1961; 48 h incubation; read-out: MIC PA 48 h
[15] = tested on: Staphylococcus aureus CCM 4516/08; assay: Antibacterial microdilution broth MIC, S. aureus; type: cell-based; details: Staphylococcus aureus, CCM4516; 48 h incubation; read-out: MIC SA 48 h
[16] = tested on: Candida glabrata 20/I; assay: Antifungal microdilution broth MIC, C. glabrata; type: cell-based; details: Nakaseomyces glabratus
[17] = tested on: Mycobacterium kansasii 235/80; assay: In vitro antimycobacterial MIC, M. kansasii 235/80; type: cell-based
[18] = tested on: Trichophyton interdigitale 445; assay: Antifungal microdilution broth MIC, T. interdigitale; type: cell-based; details: Trichophyton interdigitale, 445
[19] = tested on: Candida tropicalis 156; assay: Antifungal microdilution broth MIC, C. tropicalis; type: cell-based
[20] = Aspergillus fumigatus, 231, 48 h incubation, read-out: MIC AF 48 h
[21] = ATCC44859, 24 h, read-out: MIC CA 24 h
[22] = ATCC44859, 48 h, read-out: MIC CA 48 h
[23] = H6966/08, 48 h incubation, read-out: MIC SE 48 h
[24] = E28, 48 h incubation, read-out: MIC CK 48 h
[25] = 6509/96, 168 h, 7 d incubation, read-out: MIC M. kansasii 6509/96 7 d
[26] = 6509/96, 336 h, 14 d incubation, read-out: MIC M. kansasii 6509/96 14 d
[27] = 6509/96, 504 h, 21 d incubation, read-out: MIC M. kansasii 6509/96 21 d
[28] = 336 h, 14 d incubation, read-out: MIC Mtb. 331/88 14 d
[29] = 504 h, 21 d incubation, read-out: MIC Mtb. 331/88 21 d
[30] = 330/88, 336 h, 14 d incubation, read-out: MIC M. avium 330/88 14 d
[31] = 330/88, 504 h, 21 d incubation, read-out: MIC M. avium 330/88 21 d
[32] = Trichosporon asahii, 1188, 24 h, read-out: MIC TA 24 h
[33] = Trichosporon asahii, 1188, 48 h, read-out: MIC TA 48 h
[34] = 235/80, 168 h, 7 d incubation, read-out: MIC M. kansasii 235/80 7 d
[35] = 235/80, 336 h, 14 d incubation, read-out: MIC M. kansasii 235/80 14 d
[36] = 235/80, 504 h, 21 d incubation, read-out: MIC M. kansasii 235/80 21 d
[37] = 72 h incubation, read-out: MIC TI 72 h
[38] = 120 h incubation, read-out: MIC TI 120 h
[39] = Candida tropicalis, 156, 24 h, read-out: MIC CT 24 h
[40] = Candida tropicalis, 156, 48 h, read-out: MIC CT 48 h
[41] = ATCC44859, 48 h incubation, read-out: MIC CA 48 h
[42] = Trichosporon asahii, 1188, 48 h incubation, read-out: MIC TA 48 h
[43] = 48 h incubation, read-out: MIC CG 48 h
[44] = Candida tropicalis, 156, 48 h incubation, read-out: MIC CT 48 h

| Compound | MIC [1, 20] [µM] | MIC [2] [µM] | MIC [5, 24] [µM] | MIC [6] [µM] | MIC [7, 25] [µM] | MIC [7, 26] [µM] | MIC [7, 27] [µM] | MIC KP 24 h [8] [µM] | MIC KP 48 h [8] [µM] | MIC [9] [µM] | MIC [10, 28] [µM] | MIC [10, 29] [µM] | MIC [11, 30] [µM] | MIC [11, 31] [µM] | MIC KP-E 24 h [13] [µM] | MIC [17, 34] [µM] | MIC [17, 35] [µM] | MIC [17, 36] [µM] | MIC [18, 37] [µM] | MIC [18, 38] [µM] | also measured |
| --- | --- | --- | --- | --- | --- | --- | --- | --- | --- | --- | --- | --- | --- | --- | --- | --- | --- | --- | --- | --- | --- |
| O=S(=O)(Nc1ncccn1)c1ccc(N=Cc2cccc(Cl)c2O)cc1 [Compound 2l, 4-[(3-Chloro-2-hydroxybenzylidene)amino]-N-(pyrimidin-2-yl)benzenesulfonamide] | 250 (≈ 97.2 µg/mL) | > 500 | 250 (≈ 97.2 µg/mL) | > 500 | 16 (≈ 6.22 µg/mL) | 16 (≈ 6.22 µg/mL) | 32 (≈ 12.4 µg/mL) | >500 | >500 | > 500 | 32 (≈ 12.4 µg/mL) | 62.5 (≈ 24.3 µg/mL) | 125 (≈ 48.6 µg/mL) | 250 (≈ 97.2 µg/mL) | >500 | 16 (≈ 6.22 µg/mL) | 32 (≈ 12.4 µg/mL) | 62.5 (≈ 24.3 µg/mL) | 31.2 (≈ 12.2 µg/mL) | 31.2 (≈ 12.2 µg/mL) | MIC [3, 21]: 62.5 µM (≈ 24.3 µg/mL); MIC [3, 22]: 62.5 µM (≈ 24.3 µg/mL); MIC [4, 23]: > 500 µM; MIC [12, 32]: 125 µM (≈ 48.6 µg/mL); MIC [12, 33]: 125 µM (≈ 48.6 µg/mL); MIC KP-E 48 h [13]: >500 µM; MIC [14]: > 500 µM; MIC [15]: > 500 µM; MIC ([16]; 24 h, read-out: MIC CG 24 h): 125 µM (≈ 48.6 µg/mL); MIC ([16]; 48 h, read-out: MIC CG 48 h): 125 µM (≈ 48.6 µg/mL); MIC [19, 39]: 125 µM (≈ 48.6 µg/mL); MIC [19, 40]: 125 µM (≈ 48.6 µg/mL) |
| OC(Cn1cncn1)(Cn1cncn1)c1ccc(F)cc1F [FLU, fluconazole, reference compound] | > 500 | > 500 | 250 (≈ 76.6 µg/mL) |  |  |  |  |  |  |  |  |  |  |  |  |  |  |  | 7.81 (≈ 2.39 µg/mL) | 125 (≈ 38.3 µg/mL) | MIC [3, 41]: 0.24 µM (≈ 0.0735 µg/mL); MIC [12, 42]: 500 µM (≈ 153 µg/mL); MIC [16, 43]: 500 µM (≈ 153 µg/mL); MIC [19, 44]: > 500 µM |
| O=S(=O)(Nc1ncccn1)c1ccc(N=Cc2cc(I)ccc2O)cc1 [Compound 2e, 4-[(2-Hydroxy-5-iodobenzylidene)amino]-N-(pyrimidin-2-yl)benzenesulfonamide] | 250 (≈ 120 µg/mL) | > 500 |  | 500 (≈ 240 µg/mL) | 32 (≈ 15.4 µg/mL) | 32 (≈ 15.4 µg/mL) | 62.5 (≈ 30 µg/mL) | 500 (≈ 240 µg/mL) | 500 (≈ 240 µg/mL) | 250 (≈ 120 µg/mL) | 62.5 (≈ 30 µg/mL) | 125 (≈ 60 µg/mL) | 125 (≈ 60 µg/mL) | 250 (≈ 120 µg/mL) | 500 (≈ 240 µg/mL) | 32 (≈ 15.4 µg/mL) | 62.5 (≈ 30 µg/mL) | 125 (≈ 60 µg/mL) | 31.2 (≈ 15 µg/mL) | 31.2 (≈ 15 µg/mL) | MIC [3, 21]: 62.5 µM (≈ 30 µg/mL); MIC [3, 22]: 125 µM (≈ 60 µg/mL); MIC ([4]; H6966/08, 24 h, read-out: MIC SE 24 h): 62.5 µM (≈ 30 µg/mL); MIC ([4]; H6966/08, 48 h, read-out: MIC SE 48 h): 125 µM (≈ 60 µg/mL); MIC ([5]; E28, 24 h, read-out: MIC CK 24 h): 62.5 µM (≈ 30 µg/mL); MIC ([5]; E28, 48 h, read-out: MIC CK 48 h): 125 µM (≈ 60 µg/mL); MIC [12, 32]: 125 µM (≈ 60 µg/mL); MIC [12, 33]: 125 µM (≈ 60 µg/mL); MIC KP-E 48 h [13]: 500 µM (≈ 240 µg/mL); MIC [14]: 500 µM (≈ 240 µg/mL); MIC [15]: 250 µM (≈ 120 µg/mL); MIC ([16]; 24 h, read-out: MIC CG 24 h): 62.5 µM (≈ 30 µg/mL); MIC ([16]; 48 h, read-out: MIC CG 48 h): 62.5 µM (≈ 30 µg/mL); MIC [19, 39]: 125 µM (≈ 60 µg/mL); MIC [19, 40]: 125 µM (≈ 60 µg/mL) |
| NNC(=O)c1ccncc1 [INH, isoniazid, reference compound] |  |  |  |  | 8 (≈ 1.1 µg/mL) | 8 (≈ 1.1 µg/mL) | 8 (≈ 1.1 µg/mL) |  |  |  | 0.5 (≈ 0.0686 µg/mL) | 1 (≈ 0.137 µg/mL) | > 250 | > 250 |  | > 250 | > 250 | > 250 |  |  |  |
| O=S(=O)(Nc1ncccn1)c1ccc(N=Cc2cc(Cl)cc(I)c2O)cc1 [Compound 2o, 4-[(5-Chloro-2-hydroxy-3-iodobenzylidene)amino]-N-(pyrimidin-2-yl)benzenesulfonamide] |  | 250 (≈ 129 µg/mL) | 7.81 (≈ 4.02 µg/mL) | 250 (≈ 129 µg/mL) | 62.5 (≈ 32.2 µg/mL) | 125 (≈ 64.3 µg/mL) | 125 (≈ 64.3 µg/mL) | 500 (≈ 257 µg/mL) | 500 (≈ 257 µg/mL) | 250 (≈ 129 µg/mL) | 125 (≈ 64.3 µg/mL) | 125 (≈ 64.3 µg/mL) | 500 (≈ 257 µg/mL) | 500 (≈ 257 µg/mL) | 500 (≈ 257 µg/mL) | 125 (≈ 64.3 µg/mL) | 250 (≈ 129 µg/mL) | 250 (≈ 129 µg/mL) | 1.95 (≈ 1 µg/mL) | 1.95 (≈ 1 µg/mL) | MIC ([1]; Aspergillus fumigatus, 231, 24 h, read-out: MIC AF 24 h): 62.5 µM (≈ 32.2 µg/mL); MIC ([1]; Aspergillus fumigatus, 231, 48 h, read-out: MIC AF 48 h): 62.5 µM (≈ 32.2 µg/mL); MIC [3, 41]: 7.81 µM (≈ 4.02 µg/mL); MIC [4, 23]: 31.2 µM (≈ 16.1 µg/mL); MIC [12, 42]: 7.81 µM (≈ 4.02 µg/mL); MIC KP-E 48 h [13]: 500 µM (≈ 257 µg/mL); MIC [14]: 500 µM (≈ 257 µg/mL); MIC [15]: 15.6 µM (≈ 8.04 µg/mL); MIC [16, 43]: 7.81 µM (≈ 4.02 µg/mL); MIC [19, 44]: 7.81 µM (≈ 4.02 µg/mL) |
